In patent US4851426A, “Ethoxycarbonyloxy ethyl esters of non-steroidal anti-inflammatory carboxylic acids and pharmaceutical compositions thereof” (Teva Pharmaceutical Industries, Ltd., priority 1982, dated 1989):

What was measured:
[1] = tested on: inflamed foot of the rat (brewers' yeast); assay: Analgesic action, pressure reaction threshold of yeast-inflamed foot (Basile-Analgesy-Meter); format: in vivo; set-up: % of control 1 hr / % of control 3 hrs: concentration or dose not given beside the values; conditions: for % effect vs. parent compound 1 hr / % effect vs. parent compound 3 hrs: relative to parent; for % of control 1 hr / % of control 3 hrs: pressure reaction threshold, rat, oral
From the text: Male rats, weighing 95-140 g, 10 rats per experimental group. The major reason for selecting rats of this weight range is the ease in handling smaller sized animals in this particular test. Animals are fed and provided drinking water ad libitium until time of testing. […] (Note: Brewers' yeast, locally obtainable from "Abir" breweries, may be kept under refrigeration for a period of at least 6 months). […] This instrument is basically a device which […] force that increases at a constant rate (a certain number of grams per second). […] Note: In case weight discs are being used to increase the force of pressure applied, the same number of discs should be employed throughout the entire experiment for both experimental and control animals. For detailed operation of the analgesy-meter reference to the specific instructions of the instrument given in the appendix. a. […] The differences in the various Mean Group Values between treatment and control group are analyzed for statistical significance using the Student t-Test.

Ulcerogenicity = format: in vivo, rat; set-up: key to UI max: ulcer index = mean sum of individual lesion lengths per rat; conditions: rat, in vivo; dose causing UI50; female rats, oral, 5 hours; read-out: UD50
Procedure: (§1) Methods: Six groups of 10 female Charles River rats weighing 170-230 g were used for each drug. […] Drugs were freshly suspended in water with 1% carboxymethyl cellulose and administered by stomach tube. Rats treated were sacrificed 5 hours after oral gavage. Ulcers were evaluated under a magnifying lens, after the stomach had been dissected out, opened along the lesser curvature and rinsed.
(§2) Ulcer index (UI) for each group was calculated as the mean sum of the lengths of the individual lesions in each rat.
(§3) Apparent maximal ulcerogenicity was calculated from regression analysis of the ascending parts of each dose-response curve.

stomach ulcers in rats = assay: Ulcerogenicity; format: in vivo, rat; set-up: key to UI max: ulcer index = mean sum of individual lesion lengths per rat; conditions: for UI50: 50% of ulcerogenic index max, + on value: dose response curve acquired bell shape
Procedure: as §1, §2, §3

[2] = hydrolysis in aqueous acidic medium (simulated gastro-intestinal juices), HPLC; format: physicochemical; conditions: for Ester (%): 0 min; for Ester (%), in words: same acidic conditions, 37° C.; for stability of ECOE ester against hydrolysis in acidic medium: acidic medium (simulated gastric juice)
Procedure: The rates of hydrolysis of 2-(acetyloxy)benzoic acid (Aspirin) ethoxy carbonyloxy ethyl ester to salicylethoxy carbonyloxy ethyl ester in the aqueous acidic medium (simulated gastro-intestinal juices) were determined by dissolving the ester to a pre-determined concentration in the acidic medium containing THF: aqueous conc. HCl=1:1 and the rate of hydrolysis at 37° C. was measured by the HPLC method.
The rates of hydrolysis of acetyl salicylic acid ethoxy carbonyloxy ethyl ester to salicyl-ethoxy carbonyloxy ethyl ester in aqueous acidic system (simulated gastrointestinal juices) are given in the following table:
Ethoxy carbonyloxy ethyl ester of Aspirin was dissolved to a predetermined concentration in an acidic aqueous medium (simulated gastric juice)--mixture THF; aqueous conc. HCl (1:1) and the rate of hydrolysis at 37° C. was measured by HPLC method.

[3] = Bioavailability-pharmacokinetic profile in rats (plasma salicylate, fluorometry); format: in vivo; conditions: in words, rat
Procedure: Methods: Female Charles River rats weighing 200-250 g were used. Rates were starved for a 24 hour period prior to each experiment, while water was allowed ad libitum. […] Plasma salicylate concentrations were measured by fluorometry according to Frey and El-Sayed (Arch. Int. Pharmacodyn. 230: 300, 1977). […] Statistical evaluation was effected by (unpaired) Student t test.

[4] = dose causing max ulcerogenic index
[5] = dose-response of ulcer index, female rats, oral, 5 hours
[6] = THF: aqueous conc. HCl 1:1, 37° C.

Row | Compound | % effect vs. parent compound 1 hr [1] [%] | % effect vs. parent compound 3 hrs [1] [%] | % of control 1 hr [1] [%] | % of control 3 hrs [1] [%] | TD50 at 5 h (Ulcerogenicity) [µmol/kg] | UI50 (stomach ulcers in rats) | UD max (stomach ulcers in rats; [4]) [mmol/kg] | Slope (stomach ulcers in rats; [5]) [Uxkg/mmole] | UI max (stomach ulcers in rats; ulcerogenic index max) | UD max (stomach ulcers in rats; rat, in vivo) [mmol/kg] | UI max (stomach ulcers in rats; rat, in vivo) | Slope (stomach ulcers in rats; rat, in vivo, po) [Uxkg/mmole] | other results
1 | CCOC(=O)OC(C)OC(=O)C(C)c1ccc2cc(OC)ccc2c1 (single isomer, unassigned; (+)) [Naproxen-ECOE ester, (+)-6-Methoxy-α-methyl-2-naphthaleneacetic acid 1'-ethoxycarbonyloxy ethyl ester] | 108 | 91 | 125 | 121 | 590 | 32.5 | 1.0 | 63.5 ± 0.59 | 65.0 | – | – | – | –
2 | CCOC(=O)OC(C)OC(=O)c1ccccc1O (stereo not shown) [1'-ethoxy carbonyloxy ethyl ester of salicyclic acid] | – | – | – | – | – | – | – | – | – | – | – | – | Ester (%) [2, 6]: 100%; Ester (%), in words ([2]; 150 min): unchanged; Ester (%), in words ([2]; 180 min): unchanged; Ester (%), in words ([2]; 210 min): unchanged; Ester (%), in words ([2]; 240 min): unchanged; stability of ECOE ester against hydrolysis in acidic medium ([2]; in words, listed as 1'-ethoxycarbonyloxy ethyl ester of salicylic acid): stable in acidic medium; stability of ECOE ester against hydrolysis in acidic medium ([2]; in words, listed as Salicyl 2-ethoxy carbonyloxy ethyl ester): stable; stability of ECOE ester against hydrolysis in acidic medium ([2]; in words, listed as salicyclic acid 2-ethoxycarbonyloxy ethyl ester): stable
3 | CC(=O)Oc1ccccc1C(=O)O [Aspirin, 2-(acetyloxy)benzoic acid, reference compound] | – | – | 126 | 100 | 20 | – | – | – | – | 0.4 | 92.6 | 33.7 ± 11.5 | –
4 | CCOC(=O)OC(C)OC(=O)c1ccccc1OC(C)=O (stereo not shown) [Aspirin-ECOE ester, 1'-ethoxy carbonyloxy ethyl ester of 2-(acetyloxy)benzoic acid (Aspirin)] | 141 | 150 | 178 | 148 | 20 | 20.5 | 0.4 | 13.7 ± 6.5 | 40.9 | – | – | – | Ester (%) [2, 6]: 100%; remaining at 0.5 h ([2]; 30 min, THF: aqueous conc. HCl 1:1, 37° C., read-out: Ester (%)): 96%; remaining at 1 h ([2]; 60 min, THF: aqueous conc. HCl 1:1, 37° C., read-out: Ester (%)): 92%; remaining at 1.5 h ([2]; 90 min, THF: aqueous conc. HCl 1:1, 37° C., read-out: Ester (%)): 90%; remaining at 2 h ([2]; 120 min, THF: aqueous conc. HCl 1:1, 37° C., read-out: Ester (%)): 90%; remaining at 2.5 h ([2]; 150 min, THF: aqueous conc. HCl 1:1, 37° C., read-out: Ester (%)): 84%; remaining at 3 h ([2]; 180 min, THF: aqueous conc. HCl 1:1, 37° C., read-out: Ester (%)): 82%; remaining at 3.5 h ([2]; 210 min, THF: aqueous conc. HCl 1:1, 37° C., read-out: Ester (%)): 76%; hydrolysis of acetyl group in acidic medium ([2]; in words, acetyl group, simulated gastric juices): readily hydrolysed off; stability of ECOE ester against hydrolysis in acidic medium ([2]; in words): not readily hydrolysed off; ulcerogenicity compared with parent (stomach ulcers in rats; in words, vs parent acid): much smaller ulcerogenic liability; bioavailability of salicylate ([3]; oral 0.4 mmole/kg): seems complete; rate of appearance of salicylate ([3]; oral, vs plain aspirin): seems slower
5 | O=C(O)Cc1ccccc1Nc1c(Cl)cccc1Cl [Diclofenac, reference compound] | – | – | – | – | – | – | – | – | – | 0.6 | 61.8 | 31.1 ± 8.7 | –
6 | CCOC(=O)OC(C)OC(=O)Cc1ccccc1Nc1c(Cl)cccc1Cl (stereo not shown) [Diclofenac-ECOE ester] | 86 | 82 | 106 | 110 | – | – | 0.6 | 21.1 | 34.9 | – | – | – | –
7 | CC(C)Cc1ccc(C(C)C(=O)O)cc1 (stereo not shown) [Ibuprofen, reference compound] | – | – | 152 | 145 | 325 | – | – | – | – | 2.8 | 52.0 | 38.1 ± 8.0 | –
8 | CCOC(=O)OC(C)OC(=O)C(C)c1ccc(CC(C)C)cc1 (stereo not drawn) [Ibuprofen-ECOE ester, α-Methyl-4-(2-methylpropyl)benzene--acetic acid 1'-ethoxycarbonyloxy ethyl ester] | 115 | 89 | 176 | 129 | 300 | 13.0 | 0.7 | 36.7 ± 8.5 | 26.0 | – | – | – | –
9 | COc1ccc2c(c1)c(CC(=O)O)c(C)n2C(=O)c1ccc(Cl)cc1 [Indomethacin, reference compound] | – | – | 128 | 146 | – | – | – | – | – | 0.32 | 60 | 50 | –
10 | CCOC(=O)OC(C)OC(=O)Cc1c(C)n(C(=O)c2ccc(Cl)cc2)c2ccc(OC)cc12 (stereo not shown) [Indomethacin-ECOE ester, 1-(p-Chlorobenzoyl)-5-methoxy-2-methylindole-3-acetic acid 1'-ethoxycarbonyloxy ethyl ester] | 102 | 105 | 130 | 153 | – | – | 0.32 | 34 ± 13.8 | 42.0 | – | – | – | –
11 | COc1ccc2cc([C@H](C)C(=O)O)ccc2c1 [Naproxen, reference compound] | – | – | 116 | 133 | – | 31.0 | 2.0 | 41.0 ± 14.2 | 62.0 | – | – | – | –
